Experimental data taken from patent EP0427799B1, “METHOD AND COMPOUNDS FOR AICA RIBOSIDE DELIVERY AND FOR LOWERING BLOOD GLUCOSE” (GENSIA, INC., priority 1989, dated 1990).

Tests used:
ischemic heart tissue = assay: Adenosine, AICA riboside and ZMP levels in ischemic heart tissue; type: in vivo, rats; details: for adenosine concentrations during net ATP breakdown: rat heart ischemia model
Protocol: Prodrug compounds of the present invention and AICA riboside were tested for their activity in enhancing the production of adenosine and increasing production of AICA riboside from ZMP in ischemic heart tissue in rats.
Samples of heart tissue after ischemia were analyzed for nucleoside and nucleotide levels. Samples were measured for adenosine, AICA riboside and ZMP concentrations by HPLC.

HTL-induced seizures = assay: Inhibition of HTL-induced seizures; type: in vivo; details: mice
Protocol: Compounds were tested for their activities in inhibiting HTL-induced seizures in rats.
Animals used were male Swiss Webster mice weighing 21-30 grams (Charles River Breeding Labs, Wilmington, MA). All animals were adapted to the laboratory for at least 5 days prior to use.
All solutions to be injected were prepared as a single injection cocktail at a concentration such that 1 ml per 100 g of body weight yielded the desired dose. The solutions were compounded as follows: Homocysteine Thiolactone - HCl (HTL-HCl) (Sigma Chemical Company, St. Louis, MO) was dissolved in distilled water and the pH adjusted to 6.7 with NaOH. Pentylenetetrazol (PTZ) was dissolved in 0.9% saline. Prodrug compounds or AICA riboside (Sigma) when used alone was dissolved in distilled water. All solutions containing Mioflazine (Janssen Pharmaceuticals) were prepared at a final DMSO concentration of 10-15% as were the Dipyridamole (Sigma) solutions. N-ethylcarboxamide adenosine, NECA (Sigma) and Flunitrazepam (Hoffman La Roche) injections were prepared in a final ethanol concentration of 0.2%. In all cases carrier control solutions of carrier were injected that were matched for both tonicity and solvents to the test solutions. All test and control solutions were injected via a bolus, I.P., using a 27 gauge needle. HTL and PTZ were injected subcutaneously in the upper back of the animal. […]

PTZ induced seizures = assay: Inhibition of PTZ-induced seizures; type: in vivo; details: mice
Protocol: All solutions to be injected were prepared as a single injection cocktail at a concentration such that 1 ml per 100 g of body weight yielded the desired dose. The solutions were compounded as follows: Homocysteine Thiolactone - HCl (HTL-HCl) (Sigma Chemical Company, St. Louis, MO) was dissolved in distilled water and the pH adjusted to 6.7 with NaOH. Pentylenetetrazol (PTZ) was dissolved in 0.9% saline. Prodrug compounds or AICA riboside (Sigma) when used alone was dissolved in distilled water. All solutions containing Mioflazine (Janssen Pharmaceuticals) were prepared at a final DMSO concentration of 10-15% as were the Dipyridamole (Sigma) solutions. N-ethylcarboxamide adenosine, NECA (Sigma) and Flunitrazepam (Hoffman La Roche) injections were prepared in a final ethanol concentration of 0.2%. In all cases carrier control solutions of carrier were injected that were matched for both tonicity and solvents to the test solutions. All test and control solutions were injected via a bolus, I.P., using a 27 gauge needle. HTL and PTZ were injected subcutaneously in the upper back of the animal.
Animals were preinjected with either control solution containing only carrier or test solution containing candidate compound (prodrug or AICA riboside) and carrier in groups of 6-8 per test solution or control. […]

[1] = Blood pressure and heart rate in rats; type: in vivo
From the text: (§1) We have expanded this work on AICA riboside and S-AICA riboside homocysteine to examine other known adenosine kinase inhibitors as adenosine releasing agents. The flux (substrate made into product per unit of time), through adenosine kinase under physiological conditions is low; substrate metabolism is low partly due to low substrate availability. However, during net ATP catabolism, substrate availability (i.e. adenosine concentration) dramatically increases. […] (See Figure 15).

cell culture = assay: Adenosine concentrations in cell culture during net ATP breakdown; type: cell-based
From the text: as §1

in vivo = assay: in vivo; set-up: species or system dogs; details: dog; for AUC / Cmax / Tmax: po
Protocol: The bioavailability of AICA riboside after oral administration of either AICA riboside or one of the AICA riboside prodrugs of the present invention was evaluated in dogs. Plasma concentrations of AICA riboside and intact prodrug were measured using HPLC. (See Dixon, R., et al., Res. Commun. Chem. Path. Pharm. 65:405-408 (1989)). Bioavailability of AICA riboside was evaluated in terms of the time required to reach maximum plasma concentration (Tmax), the maximum concentration achieved (Cmax) and the area under the plasma concentration-time curve (AUC) from time zero to the last measurable plasma concentration. Absolute bioavailability (F%) was calculated by dividing the AUC for AICA riboside following oral administration of the prodrug (or AICA riboside itself) by the AUC following intravenous administration of an equivalent amount of AICA riboside (100% bioavailability).

plasma glucose = assay: Plasma glucose after adenosine and adenosine receptor agonists I.P.; type: in vivo; details: administered I.P. in either rats or mice
From the text: This leads to investigation of the mechanism of AICA riboside induced hypoglycemia. […] This adenosine induced hyperglycemia is reversed by adenosine receptor antagonists (theophylline and sulphophenyltheophylline). Additionally, the AICA riboside-induced hypoglycemia is not blocked by theophylline. It is therefore concluded that the AICA riboside effect on plasma glucose is not mediated by adenosine. […] (See Figure 13).

[2] = Enhanced oral bioavailability: tissue ZMP levels after gavage; type: in vivo, Sprague-Dawley rats
Protocol: AICA riboside was administered to Sprague-Dawley rats at a dose of 250 mg/kg or 500 mg/kg, prodrug compounds of the present invention were administered at an equal molar dose.
At 15, 30, 60 and 120 minutes after gavage, the animals were sacrificed. The tissues were obtained and frozen immediately for nucleoside and nucleotide analysis. The tissue samples obtained were liver, heart, brain and whole blood. After initial freezing in liquid nitrogen, the tissue samples were extracted with trichloroacetic acid and neutralized with alamine freon. The tissue samples were evaluated by HPLC on a Whatman Partsil-10 (SAX) column for nucleosides and bases as described in Example 6. […] Tests were run with 8 rats.
Figures 5(a) and (b) show ZMP concentrations in rat liver at doses of a molar equivalent of 250 mg/kg and 500 mg/kg AICA riboside.

blood glucose = details: several animal species, including man; cited from earlier work
adenosine kinase = adenosine kinase (Homo sapiens, UniProt P55263); assay: Inhibition of adenosine kinase; type: biochemical
Chain of adenosine kinase (P55263 whole entry, species assumed): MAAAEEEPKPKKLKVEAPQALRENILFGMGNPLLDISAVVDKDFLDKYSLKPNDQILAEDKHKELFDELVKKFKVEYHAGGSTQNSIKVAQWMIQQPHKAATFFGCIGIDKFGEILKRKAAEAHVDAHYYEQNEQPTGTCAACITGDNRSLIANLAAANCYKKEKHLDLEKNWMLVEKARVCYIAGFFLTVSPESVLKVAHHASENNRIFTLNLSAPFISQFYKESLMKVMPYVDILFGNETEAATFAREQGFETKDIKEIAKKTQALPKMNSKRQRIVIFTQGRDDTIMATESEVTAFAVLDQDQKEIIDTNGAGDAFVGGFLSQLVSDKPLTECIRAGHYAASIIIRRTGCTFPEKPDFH

FDPase [3] = biological target: T1, FDPase (Homo sapiens, UniProt P09467); assay: Inhibition of liver FDPase by ZMP (IC50); type: biochemical; details: Human liver homogenate supernatant
T1 construct: Liver samples (from the indicated species) were homogenized; from tissue; host or cells: human liver homogenate, 45,000 x g supernatant passed over Sephadex G25
T1 sequence (P09467 2-338 limits assumed): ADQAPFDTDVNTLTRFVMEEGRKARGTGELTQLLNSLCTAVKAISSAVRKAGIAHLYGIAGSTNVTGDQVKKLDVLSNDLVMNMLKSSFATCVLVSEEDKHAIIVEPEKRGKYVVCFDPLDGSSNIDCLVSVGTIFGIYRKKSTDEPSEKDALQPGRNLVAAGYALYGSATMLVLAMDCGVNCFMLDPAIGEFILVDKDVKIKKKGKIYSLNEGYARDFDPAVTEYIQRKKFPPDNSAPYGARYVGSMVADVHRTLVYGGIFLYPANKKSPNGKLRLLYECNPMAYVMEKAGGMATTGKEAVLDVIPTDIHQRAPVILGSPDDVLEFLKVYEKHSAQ
Protocol: (§2) Liver samples (from the indicated species) were homogenized in 20 mM potassium phosphate buffer (pH 7.4) with 100 µM EDTA and 100 µM dithiothreitol. The liver homogenates were centrifuged at 45,000 x/g. The supernatants were passed over a sephadex G25 column and assayed for FDPase activity by the method of Marcus et al (Methods in Enzymology 90: 352-356 (1982)) in the presence of ZMP over a range of concentration and in the absence of ZMP. The IC50 value was defined as the concentration of ZMP, which inhibited 50 percent of the baseline FDPase activity under the assay conditions.

FDPase [4] = biological target: T2, FDPase (Mus musculus, UniProt Q9QXD6); assay: Inhibition of liver FDPase by ZMP (IC50); type: biochemical; details: Mouse liver homogenate supernatant
T2 construct: Liver samples (from the indicated species) were homogenized; from tissue; host or cells: mouse liver homogenate, 45,000 x g supernatant passed over Sephadex G25
T2 sequence (Q9QXD6 2-338 limits assumed): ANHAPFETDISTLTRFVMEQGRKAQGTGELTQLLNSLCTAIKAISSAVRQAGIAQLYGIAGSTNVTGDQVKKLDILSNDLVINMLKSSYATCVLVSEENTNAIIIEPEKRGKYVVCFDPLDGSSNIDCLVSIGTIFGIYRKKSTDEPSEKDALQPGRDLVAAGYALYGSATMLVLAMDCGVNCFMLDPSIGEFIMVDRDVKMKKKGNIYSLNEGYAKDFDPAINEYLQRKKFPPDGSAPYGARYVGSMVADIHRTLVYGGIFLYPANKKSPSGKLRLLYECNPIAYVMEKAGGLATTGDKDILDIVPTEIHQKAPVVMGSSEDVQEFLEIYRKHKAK
Protocol: as §2

FDPase [5] = biological target: T3, FDPase (Oryctolagus cuniculus, UniProt P00637); assay: Inhibition of liver FDPase by ZMP (IC50); type: biochemical; details: Rabbit liver homogenate supernatant
T3 construct: Liver samples (from the indicated species) were homogenized; from tissue; host or cells: rabbit liver homogenate, 45,000 x g supernatant passed over Sephadex G25
T3 sequence (P00637 2-338 limits assumed): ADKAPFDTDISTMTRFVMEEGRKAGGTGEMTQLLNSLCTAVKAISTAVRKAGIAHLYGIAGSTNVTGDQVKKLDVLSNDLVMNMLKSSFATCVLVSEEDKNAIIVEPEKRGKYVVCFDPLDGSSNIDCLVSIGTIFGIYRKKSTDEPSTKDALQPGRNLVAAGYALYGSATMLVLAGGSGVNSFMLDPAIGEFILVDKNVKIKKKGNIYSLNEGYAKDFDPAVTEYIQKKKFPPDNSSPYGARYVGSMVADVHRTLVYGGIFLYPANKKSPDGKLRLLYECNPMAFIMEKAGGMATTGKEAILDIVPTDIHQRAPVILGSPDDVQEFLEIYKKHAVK
Protocol: as §2

FDPase [6] = biological target: T4, FDPase (Rattus norvegicus, UniProt P19112); assay: Inhibition of liver FDPase by ZMP (IC50); type: biochemical; details: Rat liver homogenate supernatant
T4 construct: Liver samples (from the indicated species) were homogenized; from tissue; host or cells: rat liver homogenate, 45,000 x g supernatant passed over Sephadex G25
T4 sequence (P19112 2-363 limits assumed): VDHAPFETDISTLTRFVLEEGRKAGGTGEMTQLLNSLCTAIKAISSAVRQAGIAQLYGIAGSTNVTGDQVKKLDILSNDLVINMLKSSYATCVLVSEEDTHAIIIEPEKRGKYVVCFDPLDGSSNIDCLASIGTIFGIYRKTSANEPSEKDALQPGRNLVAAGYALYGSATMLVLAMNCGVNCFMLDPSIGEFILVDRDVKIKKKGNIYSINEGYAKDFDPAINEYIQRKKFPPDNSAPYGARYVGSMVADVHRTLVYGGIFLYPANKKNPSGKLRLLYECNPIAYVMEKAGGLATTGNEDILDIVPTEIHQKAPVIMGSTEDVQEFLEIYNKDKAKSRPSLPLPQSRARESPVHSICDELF
Protocol: as §2

FDPase [7] = assay: Inhibition of liver FDPase by ZMP (IC50); type: biochemical
Protocol: as §2

[8] = biological target: T5, fructose diphosphatase ("FDPase") (Oryctolagus cuniculus, UniProt P00637); assay: Inhibition of fructose-1,6-diphosphatase from rabbit liver; type: biochemical
T5 construct: fructose -1,6- diphosphatase from rabbit liver (Sigma); purchased Sigma; host or cells: rabbit liver (enzyme isolated from tissue)
T5 sequence (P00637 2-338 limits assumed): as the sequence (P00637 2-338 limits assumed) above
From the text: Activity was expressed as a velocity (rate of conversion of substrate).

In the case of `NC[C@H]1O[C@@H](n2cnc3c(N)ncnc32)[C@H](O)[C@@H]1O` [5'-amino-5'-deoxyadenosine], the “adenosine concentrations during net ATP breakdown” value (ischemic heart tissue) is reported as “increased adenosine concentrations”, the “activity against HTL-induced seizures” value (HTL-induced seizures) is reported as “observed to prevent HTL-induced seizure” and the “activity against PTZ induced seizures” value (PTZ induced seizures) is reported as “effective in blocking pentylene-tetrazole (PTZ) induced seizures”. The “changes in blood pressure or heart rate” value [1] was “did not produce any significant changes in blood pressure or heart rate” and the “adenosine concentrations during net ATP breakdown” value (cell culture) was “increased adenosine concentrations”.
For `Nc1ncnc2c1c(I)cn2[C@@H]1O[C@H](CO)[C@@H](O)[C@H]1O` [5-iodotubercidin], the “adenosine concentrations during net ATP breakdown” value (ischemic heart tissue) was “increased adenosine concentrations” and the “adenosine concentrations during net ATP breakdown” value (cell culture) was “increased adenosine concentrations”.
`CC(C)C(=O)OC[C@H]1O[C@@H](n2cnc(C(N)=O)c2N)[C@H](O)[C@@H]1O` [Compound 10, 5'-isobutyryl-AICA riboside] showed an F (in vivo) of 60%, an AUC (in vivo) of 4900 ng·h/mL and a Cmax (in vivo) of 5000 ng/mL. The Tmax (in vivo) was 0.75 h.
For `CC(C)(C)C(=O)OC[C@H]1O[C@@H](n2cnc(C(N)=O)c2N)[C@H](O)[C@@H]1O` [Compound 11, 5'-pivalyl-AICA riboside], the F (in vivo) was 44%, the AUC (in vivo) was 3700 ng·h/mL and the Cmax (in vivo) was 3200 ng/mL. For the same compound, the Tmax (in vivo) was 1.0 h.
In the case of `CC(=O)OC[C@H]1O[C@@H](n2cnc(C(N)=O)c2N)[C@H](OC(C)=O)[C@@H]1OC(C)=O` [Compound C1, 2',3',5'-triacetyl AICA riboside], the F (in vivo) is reported as 39%, the AUC (in vivo) is reported as 3200 ng·h/mL and the Cmax (in vivo) is reported as 2200 ng/mL. The Tmax (in vivo) was 1.5 h.
In the case of `CCNC(=O)[C@H]1O[C@@H](n2cnc3c(N)ncnc32)[C@H](O)[C@@H]1O` [N-ethylcarboxamide adenosine], the “increases in plasma glucose (hyperglycemia)” value (“increases in plasma glucose” below) (plasma glucose) is reported as 200-300%.
With `CC(C)COC(=O)O[C@H]1[C@@H](O)[C@H](n2cnc(C(N)=O)c2N)O[C@@H]1CO` [Prodrug A, 5-amino-3'-(2-methyl-1-propoxycarbonyl)-1-β-D-ribofuranosyl-imidazole-4-carboxamideie] the “potency in enhancing adenosine production relative to AICA riboside” value (ischemic heart tissue; ischemic heart model, molar basis) was “about 30%”, the “Tissue Concentration Adenosine” value (ischemic heart tissue; ischemic rat heart tissue, Prodrug A at dose equimolar to AICA riboside) was 553 ± 46 nmol/g and the “Tissue Concentration AICA Riboside” value (ischemic heart tissue; ischemic rat heart tissue, equimolar doses) was 592 ± 55 nmol/g. For the same compound, the “ZMP accumulation in the liver relative to AICA riboside” value ([2]; after an equimolar gavage) was 5 times, the “oral bioavailability as evidenced by ZMP levels in liver, whole blood and heart” value ([2]; rats, gavage, dose equimolar to AICA riboside) was “increased oral bioavailability” and the “activity against HTL-induced seizures” value (HTL-induced seizures) was “improved anticonvulsant activity”.
In the case of `O=C[C@H](O)[C@H](O)[C@H](O)CO` [Ribose], the “dose lowering blood glucose” value (blood glucose) is given as “about 1000 mg/kg”.
In the case of `NC(=O)c1ncn(C2OC(CSCCC(N)C(=O)O)C(O)C2O)c1N` (stereo not shown) [S-AICA riboside homocysteine, S-AICA ribosyl homocysteine], the “inhibition of adenosine kinase” value (adenosine kinase) is reported as “more potent”.
In the case of `NC(=O)c1ncn([C@@H]2O[C@H](COP(=O)(O)O)[C@@H](O)[C@H]2O)c1N` [ZMP, AICA riboside-5'-monophosphate], the IC50 (FDPase [3]) is reported as 48 µM, the IC50 (FDPase [4]) is reported as 150 µM and the IC50 (FDPase [5]) is reported as 41 µM. It also gave an IC50 (FDPase [6]) of 375 µM, an IC50 (FDPase [7]; Gerbil liver homogenate supernatant) of 50 µM and an IC50 (FDPase [7]; Guinea Pig liver homogenate supernatant) of 12 µM. For the same compound, the Ki [8] was ~40 µM.
For `Nc1ncnc2c1ncn2[C@@H]1O[C@H](CO)[C@@H](O)[C@H]1O` [adenosine, 9-β-D-ribofuranosyladenine], the “increases in plasma glucose” value (plasma glucose) was 200-300%.
For `OC[C@H]1O[C@@H](n2cnc3c(NC4CCCCC4)ncnc32)[C@H](O)[C@@H]1O` [cyclohexyladenosine], the “increases in plasma glucose” value (plasma glucose) was 200-300%.
